Assay results published in PubChem BioAssay AID262 (DTP/NCI, 2004).
Values joined by “and” are separate entries in the source; they are usually repeats but may differ in a detail not shown here. Equal values may be shown once.

Test system: LX-1 lung xenograft sc, nude mice, tumor weight
Test: NCI In Vivo Anticancer Drug Screen. Data for tumor model Human Lung LX-1 Xenograft (subcutaneous) in NU/NU Swiss (nude) mice
Conditions: endpoint: optimum tumor weight change, higher = larger tumour
Experimental: The antitumor activity of compounds was measured in mice bearing transplantable tumors. Survival or tumor size were measured and the results are expressed as the measurement made in the treated group (T) divided by the measurement made in the vehicle treated control group (C). The tumor model used in this assay is Human Lung LX-1 Xenograft (subcutaneous) in NU/NU Swiss (nude) mice

[1] = dose: 50.0 mg/kg/injection, schedule: Q04DX003 (ip), vehicle: suspension in saline
[2] = dose: 25.0 mg/kg/injection, schedule: Q04DX003 (ip), vehicle: Klucel (hydroxypropylcellulose) (HPC)
[3] = dose: 50.0 mg/kg/injection, schedule: Q04DX003 (ip), vehicle: saline
[4] = dose: 100.0 mg/kg/injection, schedule: Q04DX003 (ip), vehicle: saline
[5] = dose: 8.0 mg/kg/injection, schedule: Q04DX003 (ip), vehicle: saline
[6] = dose: 16.0 mg/kg/injection, schedule: Q04DX003 (ip), vehicle: saline
[7] = dose: 30.0 mg/kg/injection, schedule: Q04DX003 (ip), vehicle: saline
[8] = dose: 50.0 mg/kg/injection, schedule: Q04DX003 (ip), vehicle: Klucel (hydroxypropylcellulose) (HPC)
[9] = dose: 100.0 mg/kg/injection, schedule: Q04DX003 (ip), vehicle: suspension in saline
[10] = dose: 1.0 mg/kg/injection, schedule: Q04DX003 (ip), vehicle: saline
[11] = dose: 4.0 mg/kg/injection, schedule: Q04DX003 (ip), vehicle: saline
[12] = dose: 200.0 mg/kg/injection, schedule: Q04DX003 (ip), vehicle: saline
[13] = dose: 200.0 mg/kg/injection, schedule: Q04DX003 (ip), vehicle: saline with Tween-80
[14] = dose: 200.0 mg/kg/injection, schedule: Q04DX003 (ip), vehicle: suspension in saline
[15] = dose: 400.0 mg/kg/injection, schedule: Q04DX003 (ip), vehicle: saline
[16] = dose: 400.0 mg/kg/injection, schedule: Q04DX003 (ip), vehicle: suspension in saline
[17] = dose: 800.0 mg/kg/injection, schedule: Q04DX003 (ip), vehicle: saline
[18] = dose: 6.0 mg/kg/injection, schedule: Q04DX003 (ip), vehicle: saline with Tween-80

In the case of `O=c1[nH]c2c(ccc3cnccc32)c2c1CCC2`, the T/C (dose: 12.5 mg/kg/injection, schedule: Q04DX003 (ip), vehicle: suspension in saline) is reported as 35 % of control, the T/C (dose: 25.0 mg/kg/injection, schedule: Q04DX003 (ip), vehicle: suspension in saline) is reported as 70 % of control and the T/C [1] is reported as 61 % of control.
In the case of `Nc1nc(N)c2cc(CNc3ccc(C(=O)NC(CC(=O)O)CC(=O)O)cc3)ccc2n1`, the T/C (dose: 6.25 mg/kg/injection, schedule: Q04DX003 (ip), vehicle: Klucel (hydroxypropylcellulose) (HPC)) is reported as 66 % of control, the T/C (dose: 12.5 mg/kg/injection, schedule: Q04DX003 (ip), vehicle: Klucel (hydroxypropylcellulose) (HPC)) is reported as 71 % of control and the T/C [2] is reported as 78 % of control.
`CNC(=O)ON(C(C)=O)C(=O)NC` was tested, and the T/C (dose: 12.5 mg/kg/injection, schedule: Q04DX003 (ip), vehicle: saline) was 94 % of control, the T/C (dose: 25.0 mg/kg/injection, schedule: Q04DX003 (ip), vehicle: saline) was 103 % of control and the T/C [3] was 71 % of control. The T/C [4] was 60 % of control.
With `CCCCNCCCNCCCNC(=O)c1csc(-c2csc(CCNC(=O)C(NC(=O)C(C)C(O)C(C)NC(=O)C(NC(=O)c3nc(C(CC(N)=O)NCC(N)C(N)=O)nc(N)c3C)C(OC3OC(CO)C(O)C(O)C3OC3OC(CO)C(O)C(OC(N)=O)C3O)c3cnc[nH]3)C(C)O)n2)n1` (stereo not given) the T/C [5] was 56 % of control, the T/C (dose: 15.0 mg/kg/injection, schedule: Q04DX003 (ip), vehicle: saline) was 19 % of control and the T/C [6] was 30 % of control. For the same compound, the T/C [7] was 20 % of control, the T/C (dose: 32.0 mg/kg/injection, schedule: Q04DX003 (ip), vehicle: saline) was 26 % of control and the T/C (dose: 64.0 mg/kg/injection, schedule: Q04DX003 (ip), vehicle: saline) was 19 % of control. For the same compound, the T/C (dose: 128.0 mg/kg/injection, schedule: Q04DX003 (ip), vehicle: saline) was 1 % of control.
With `COc1ccc(C(N)=O)cc1N=NN(C)C` the T/C (dose: 18.75 mg/kg/injection, schedule: Q04DX003 (ip), vehicle: Klucel (hydroxypropylcellulose) (HPC)) was 60 % of control.
For `CC(C)CCCCCCCCCCCCC(=O)NCC(=O)NC1C(C)OC(Nc2ncnc3nc[nH]c23)C(O)C1O` (stereo not given), the T/C (dose: 6.25 mg/kg/injection, schedule: Q04DX003 (ip), vehicle: saline with Tween-80) was 34 % of control.
With `CCOC(=O)C1C2OC(=O)C(C(=O)C2CN(CCCl)CCCl)C1C1CC=C(CC2=CCC(C3C4C(=O)OC(C(CN(CCCl)CCCl)C4=O)C3C(=O)OCC)CC2)CC1` (stereo not given) the T/C [2] was 58 % of control, the T/C [8] was 64 % of control and the T/C (dose: 100.0 mg/kg/injection, schedule: Q04DX003 (ip), vehicle: Klucel (hydroxypropylcellulose) (HPC)) was 55 % of control.
In the case of `Oc1ccc(O)cc1`, the T/C [3] is reported as 201 % of control.
`CC(CN1CC(=O)NC(=O)C1)N1CC(=O)NC(=O)C1` (stereo not given) was tested, and the T/C [1] was 70 % of control and the T/C [9] was 53 % of control.
In the case of `COc1ccc2c(NCCCCCCCCNc3c4ccccc4nc4cc(OC)ccc34)c3ccccc3nc2c1`, the T/C (dose: 0.5 mg/kg/injection, schedule: Q04DX003 (ip), vehicle: distilled water + alcohol) is reported as 67 % of control, the T/C (dose: 0.5 mg/kg/injection, schedule: Q04DX003 (ip), vehicle: saline) is reported as 60 % of control and the T/C (dose: 1.0 mg/kg/injection, schedule: Q04DX003 (ip), vehicle: distilled water + alcohol) is reported as 45 % of control. The T/C [10] was 61 % of control, the T/C (dose: 2.0 mg/kg/injection, schedule: Q04DX003 (ip), vehicle: distilled water + alcohol) was 79 % of control and the T/C (dose: 2.0 mg/kg/injection, schedule: Q04DX003 (ip), vehicle: saline) was 86 % of control. The T/C (dose: 4.0 mg/kg/injection, schedule: Q04DX003 (ip), vehicle: distilled water + alcohol) was 45 % of control and the T/C [11] was 65 % of control.
In the case of `O=C1c2c(O)ccc(O)c2C(=O)c2c(NCCNCCO)ccc(NCCNCCO)c21`, the T/C (dose: 0.31 mg/kg/injection, schedule: Q04DX003 (ip), vehicle: water) is reported as 52 % of control.
In the case of `CN(N=O)C(=O)N[C@@H](C=O)[C@@H](O)[C@H](O)[C@H](O)CO`, the T/C [4] is reported as 150 % of control and the T/C [12] is reported as 64 % of control.
`NC(=S)N/N=C/c1ccc(O)cn1` was tested, and the T/C [13] was 64 % of control and the T/C (dose: 400.0 mg/kg/injection, schedule: Q04DX003 (ip), vehicle: saline with Tween-80) was 76 % of control.
In the case of `CNC=O`, the T/C [12] is reported as 64 % of control and 82 % of control and 86 % of control, the T/C [14] is reported as 56 % of control and 67 % of control and the T/C [15] is reported as 38 % of control and 41 % of control and 49 % of control. The T/C [16] was 37 % of control and 57 % of control, the T/C [17] was 12 % of control and 23 % of control and the T/C (dose: 800.0 mg/kg/injection, schedule: Q04DX003 (ip), vehicle: suspension in saline) was 25 % of control and 30 % of control.
For `COc1cc([C@@H]2c3cc4c(c(O)c3C[C@H]3COC(=O)[C@@H]32)OCO4)cc(OC)c1O`, the T/C (dose: 3.13 mg/kg/injection, schedule: Q04DX003 (ip), vehicle: saline) was 122 % of control and the T/C (dose: 6.25 mg/kg/injection, schedule: Q04DX003 (ip), vehicle: saline) was 55 % of control.
In the case of `C=CC(=O)N1CN(C(=O)C=C)CN(C(=O)C=C)C1`, the T/C (dose: 1.5 mg/kg/injection, schedule: Q04DX003 (ip), vehicle: saline with Tween-80) is reported as 89 % of control, the T/C (dose: 3.0 mg/kg/injection, schedule: Q04DX003 (ip), vehicle: saline with Tween-80) is reported as 62 % of control and the T/C [18] is reported as 80 % of control.
With `Nc1cc2[nH]cnc2c(=O)[nH]1` the T/C [3] was 96 % of control, the T/C [4] was 123 % of control and the T/C [12] was 112 % of control.
In the case of `COc1cccc2c1C(=O)c1c(O)c3c(c(O)c1C2=O)C[C@@](O)(C(=O)CO)C[C@@H]3OC1CC(N)C(OC)C(C)O1` (stereo not given in full), the T/C (dose: 0.4 mg/kg/injection, schedule: Q04DX003 (ip), vehicle: saline) is reported as 84 % of control, the T/C (dose: 0.79 mg/kg/injection, schedule: Q04DX003 (ip), vehicle: saline) is reported as 106 % of control and the T/C (dose: 1.57 mg/kg/injection, schedule: Q04DX003 (ip), vehicle: saline) is reported as 40 % of control.
With `O=CC(S)CO` (stereo not given) the T/C [14] was 99 % of control.
In the case of `O=C1N(Cl)C(=O)C(c2ccc(Cl)cc2)(c2ccc(Cl)cc2)N1Cl`, the T/C (dose: 100.0 mg/kg/injection, schedule: Q04DX003 (ip), vehicle: saline with Tween-80) is reported as 66 % of control and the T/C [13] is reported as 42 % of control.
In the case of `N[C@H](C(=O)O)[C@@H]1CC(Cl)=NO1`, the T/C (dose: 8.0 mg/kg/injection, schedule: Q01DX009 (ip), vehicle: saline) is reported as 31 % of control, the T/C (dose: 16.0 mg/kg/injection, schedule: Q01DX009 (ip), vehicle: saline) is reported as 17 % of control and the T/C (dose: 32.0 mg/kg/injection, schedule: Q01DX009 (ip), vehicle: saline) is reported as 24 % of control. The T/C [9] was 36 % of control, the T/C [14] was 27 % of control and the T/C [15] was 6 % of control. The T/C [16] was 15 % of control.
`NC(Cc1ccc(N(CCCl)CCCl)cc1)C(=O)O` (stereo not given) was tested, and the T/C (dose: 5.0 mg/kg/injection, schedule: Q04DX003 (ip), vehicle: Klucel (hydroxypropylcellulose) (HPC)) was 66 % of control.
For `Cc1c(CNc2ccc(C(=O)NC(CC(=O)O)C(=O)O)cc2)ccc2nc(N)nc(N)c12` (stereo not given), the T/C [18] was 63 % of control, the T/C (dose: 12.0 mg/kg/injection, schedule: Q04DX003 (ip), vehicle: saline with Tween-80) was 94 % of control and the T/C (dose: 24.0 mg/kg/injection, schedule: Q04DX003 (ip), vehicle: saline with Tween-80) was 81 % of control.
With `CC[C@](O)(C(=O)O)c1cc2n(c(=O)c1CO)Cc1cc3ccccc3nc1-2` the T/C [10] was 40 % of control, the T/C [11] was 26 % of control and 40 % of control and the T/C [5] was 32 % of control and 35 % of control. For the same compound, the T/C [6] was 29 % of control.
For `CCCC(=O)OCc1cc(=O)n(C)c2c3c4c(cc12)c(C)cc(=O)n4CO3`, the T/C [8] was 116 % of control.
`O=C[C@@H](CO)O[C@H](C=O)n1cnc2c(=O)[nH]cnc21` was tested, and the T/C [9] was 92 % of control, the T/C [14] was 73 % of control and the T/C [16] was 62 % of control.
`Cc1c(N)nc([C@H](CC(N)=O)NC[C@H](N)C(N)=O)nc1C(=O)N[C@H](C(=O)N[C@H](C)[C@@H](O)[C@H](C)C(=O)N[C@H](C(=O)NCCc1nc(-c2nc(C(=O)NCCC[S+](C)C)cs2)cs1)[C@@H](C)O)C(OC1OC(CO)C(O)C(O)C1OC1OC(CO)C(O)C(OC(N)=O)C1O)c1cnc[nH]1` (stereo not given in full) was tested, and the T/C (dose: 3.75 mg/kg/injection, schedule: Q04DX003 (ip), vehicle: saline) was 45 % of control, the T/C [11] was 70 % of control and the T/C [6] was 49 % of control and 56 % of control and 63 % of control. For the same compound, the T/C [7] was 33 % of control and 55 % of control and the T/C (dose: 60.0 mg/kg/injection, schedule: Q04DX003 (ip), vehicle: saline) was 8 % of control and 21 % of control.
For `O=C(O)CP(=O)(O)O`, the T/C [15] was 98 % of control, the T/C [17] was 90 % of control and the T/C (dose: 1600.0 mg/kg/injection, schedule: Q04DX003 (ip), vehicle: saline) was 75 % of control.
